Reference: paper PMC7247425, “MRP1-Collateral Sensitizers as a Novel Therapeutic Approach in Resistant Cancer Therapy: An In Vitro and In Vivo Study in Lung Resistant Tumor” (International Journal of Molecular Sciences, 2020)

Tests used:
[1] = Solubility in solvents suitable for in vivo studies; type: physicochemical
Source text: Of note, the dose of F397 and F421 effective as an anti-tumor agent in vivo was lower than the dosage effective as an anti-proliferative agent in vitro. One possible reason could be that part of the anti-tumor effect of the compounds was mediated by their activity on the tumor microenvironment, not necessarily only on tumor cells. This aspect cannot be evaluated in the viability assays performed in vitro and could lead to an underestimation of the compounds’ potency. Further, the repeated administration of F397 and F421 followed in vivo instead of the single dosage used in vitro can be an additional explanation. […] This could also be the case of F397 and F421 against A549/DX tumors. […] It is also worth noting that the treatment was not toxic for liver, heart, and kidney compared with the control, as shown from the hemato-chemical parameters of the animals (Table 2).

in vitro = type: cell-based; details: human
Source text: Nevertheless, the involvement of a sigma-2 receptor-mediated effect was ruled out by the detection of a low density of sigma-2 receptors in A549 cells (data not shown). […].

A549/DX = assay: Mitochondrial ROS production in A549/DX (MitoSOX Red); type: cell-based, human; details: 24 h; for Mitochondrial ROS production with cis-Pt: 10 μM + cis-Pt 25 μM; for Mitochondrial ROS production, compound alone / Mitochondrial ROS production with Mitotempol: 10 μM; for Mitochondrial ROS production with Mitotempol: Mitotempol 10 mM
Protocol: An increase in ROS of mitochondrial origin is particularly effective in killing multidrug-resistant cells. To investigate whether the ROS were of mithocondrial origin, the same experiment was set up evaluating ROS production at 24 h with Mitotempol, the scavenger of mithocondrial ROS.
Here, 1 × 10^6 cells were re-suspended in a final volume of 0.5 mL PBS and incubated for 30 min at 37 °C with 5 μM of the fluorescent probe MitoSOX Red (Invitrogen Life Technology, Milano, Italy) in the dark. Cells were then centrifuged at 13,000× g at 37 °C and re-suspended in 0.5 mL PBS. The fluorescence of each sample, considered as the index of ROS levels, was read at 510 (λ excitation) and 580 nm (λ emission) using a Synergy HT Multi-Mode Microplate Reader (Bio-Tek Instruments). The results were expressed as nmol mitochondrial ROS/mg cell proteins. A preliminary titration curve was set up by incubating the cells for 1 h with the cells treated with serial dilutions (10–0.01 nM) of the pro-oxidant agent menadione.

[2] = Hemato-chemical parameters and tolerability in treated mice; type: in vivo; design: Creatinine: unit not given here; details: for ALT / AP / AST / CPK / Creatinine / LDH: blood after euthanasia day 21, i.p. treatment day 1, 7, 14, means ± SD, n = 8; for Maximum tolerated dose: i.p., in 100 µL water/10% DMSO, mice (not shown)
Protocol: (§1) Here, 1 × 10^6 A549/DX cells were mixed with 100 μl Matrigel implanted in 6-week-old female nu/nu BALB/C mice (Charles River Laboratories Italia, Calco, Italy), housed (5 per cage) under 12 h light/dark cycle, with food and drinking provided ad libitum. Tumor growth was measured daily by caliper, according to the equation (LxW2)/2, where L = tumor length and W = tumor width. When the tumor reached the volume of 50 mm^3, mice (n = 8/group) were randomized and treated as reported in the following groups, treated on day 1, 7, and 14 after randomization: (1) vehicle group (ctrl), treated intraperitoneally (i.p.) with 100 µL saline solution; (2) cis-Pt group, treated i.p. with 50 mg/kg cis-Pt, dissolved in 100 µL water/10% DMSO solution, according to Kopecka et al., 2015 [53]; (3) F397 group, treated i.p. with 750 nmoles of the compound, dissolved in 100 µL water/10% DMSO solution, corresponding to the maximum tolerated dose (not shown and Table 2); (4) F421 group, treated i.p. with 750 nmoles of the compound, dissolved in 100 µL water/10% DMSO solution i.p, corresponding to the maximum tolerated dose (not shown and Table 2); (5) cis-Pt/F397 group, treated i.p. with 50 mg/kg Cis-Pt and 750 nmoles of F397; (6) cis-Pt/F421 group, treated i.p. with 50 mg/kg cis-Pt and 750 nmoles of F421; (7) MK571 group, treated i.p. with 3 mg/kg MK571 dissolved in 100 µL water/10% DMSO solution, according to Jones et al., 1989 [56]; (8) MK571/F397 group, treated i.p. with 3 mg/kg MK571 and 750 nmoles of F397; (9) MK571/F421 group, treated i.p. with 3 mg/kg MK571 and 750 nmoles of F421. Tumor volumes were monitored daily. Animals were euthanized at day 21 after randomization with zolazepam (0.2 mL/kg) and xylazine (16 mg/kg). Lactate dehydrogenase (LDH), aspartate aminotransferase (AST), alanine aminotransferase (ALT), alkaline phosphatase (AP), creatinine, and creatine phosphokinase (CPK) were measured on blood samples collected immediately after euthanasia, using commercially available kits from Beckman Coulter Inc. (Beckman Coulter, Miami, FL, USA).

A549/DX cells = assay: In vivo tumor growth of A549/DX xenografts; design: species or system nu/nu BALB/C mice; details: for Tumor growth, single agent: A549/DX xenografts in nu/nu BALB/C mice, 750 nmoles i.p. on day 1, 7, 14; for Tumor growth, co-administration with MK571 / Tumor growth, co-administration with cis-Pt: A549/DX xenografts; for Tumor growth, co-administration with MK571: 750 nmoles + 3 mg/kg MK571 i.p.; for Tumor growth, co-administration with cis-Pt: 750 nmoles + 50 mg/kg cis-Pt i.p.
Protocol: In order to translate in vivo the capability of F397, F400, and F421 to act as “sensitizers”, A549/DX cells were implanted in immune-deficient BALB/C mice, and once the tumor reached the volume of 50 mm^3, the mice were randomized and treated […] with the vehicle (saline solution) and/or cis-Pt.
as §1

MCF7/DX = test system: MCF7/DX; design: method as in PMID 24106081; details: resistant MCF7/DX overexpressing P-gp; read-out: EC50, cytotoxic activity in MCF7/DX; cited from earlier work
P-gp = test system: P-gp; design: method as in PMID 24106081; details: MCF7 cell line; read-out: EC50, P-gp inhibition; cited from earlier work
MCF7 cell line = test system: MCF7 cell line; design: method as in PMID 24106081; details: MCF7 cells; read-out: EC50, cytotoxicity in MCF7; cited from earlier work

SMILES	Solubility in solvents suitable for in vivo studies [1]	EC50 (in vitro) [µM]	Mitochondrial ROS production with cis-Pt (A549/DX)	Mitochondrial ROS production, compound alone (A549/DX)	Mitochondrial ROS production with Mitotempol (A549/DX)	ALT [2] [U/L]	AP [2] [U/L]	AST [2] [U/L]	CPK [2] [U/L]	Creatinine [2]	LDH [2] [U/L]	Maximum tolerated dose [2] [nmol]	Tumor growth, single agent (A549/DX cells)	Tumor growth, co-administration with MK571 (A549/DX cells)	Tumor growth, co-administration with cis-Pt (A549/DX cells)	EC50 (MCF7/DX) [µM]	EC50 (P-gp) [nM]	EC50 (MCF7 cell line) [µM]
COc1cc2c(cc1OC)CN(C(=O)CCC1CCCc3c(OC)cccc31)CC2 (centres unmarked) [F400, 6,7-dimethoxy-2-[3-(5-methoxy-1,2,3,4-tetrahydronaphthalen-1-yl)propionyl]-1,2,3,4 tetrahydroisoquinoline]	could not be dissolved in solvents suitable for in vivo studies	> 100	enforced by the concurrent administration of cis-Pt	increased the intramithocondrial ROS	reversed by Mitotempol	–	–	–	–	–	–	–	–	–	–	–	–	–
COc1cc2c(cc1OC)CN(CCCCc1cn(-c3ccc(F)cc3)c3ccccc13)CC2 [F397, 6,7-dimethoxy-2-{4-[1-(4-fluorophenyl)-1H-indol-3-yl]butyl}-1,2,3,4-tetrahydroisoquinoline]	–	–	enforced by the concurrent administration of cis-Pt	increased the intramithocondrial ROS	reversed by Mitotempol	37 ± 108	112 ± 32	81 ± 24	324 ± 72	0.043 ± 0.009	6729 ± 492	750	low growth reduction	abated the cytotoxic effect	greatly reduced tumor growth	21.8	210	17.8
COc1ccc(CNCCCCc2cn(-c3ccc(F)cc3)c3ccccc23)cc1OC [F421, N-{4-[1-(4-fluorophenyl)-1H-indol-3-yl]butyl}-3,4-dimethoxybenzylamine]	–	> 100	enforced by the concurrent administration of cis-Pt	increased the intramithocondrial ROS	reversed by Mitotempol	33 ± 13	143 ± 34	82 ± 37	321 ± 72	0.045 ± 0.011	7182 ± 892	750	low growth reduction	abated the cytotoxic effect	greatly reduced tumor growth	–	–	–
